ChEMBL document CHEMBL3877299, “Imidazopyridine-fused [1,3]-diazepinones part 2: Structure-activity relationships and antiproliferative activity against melanoma cells” (Eur J Med Chem, 2017)

System: not listed separately
Assay: Cytotoxicity against human MDA-MB-435 cells assessed as growth inhibition after 48 hrs by MTT assay
Assay type: functional
Conditions: MDA-MB-435, 48 h

`C[C@H]1NC(c2ccc(Br)cc2)=Nc2nc3ccccn3c2C1=O` and `C[C@@H]1NC(c2ccc(F)cc2)=Nc2nc3ccccn3c2C1=O` cannot be ordered by GI50: greater than 100 µM for the first, greater than 10 µM for the second.

Compared with `Cc1ccccc1C1=Nc2nc3ccccn3c2C(=O)[C@H](C)N1`, `C[C@@H]1NC(c2ccccc2Br)=Nc2nc3ccccn3c2C1=O` is lower in GI50: greater than 10 µM for the first, 8.35 µM for the second.

Going from `COc1ccc(C2=Nc3nc4ccccn4c3C(=O)[C@H](C)N2)cc1OC` to `C[C@@H]1NC(c2cccc(Cl)c2)=Nc2nc3ccccn3c2C1=O`, the GI50 falls from greater than 10 µM to 10 µM.

Compared with `C[C@@H]1NC(c2ccc(C#N)cc2)=Nc2nc3ccccn3c2C1=O`, `C[C@@H]1NC(c2ccc(I)cc2)=Nc2nc3ccccn3c2C1=O` is lower in GI50: greater than 10 µM for the first, 1.35 µM for the second.

First: C[C@@H]1NC(c2ccc(-c3ccccc3)cc2)=Nc2nc3ccccn3c2C1=O
Second: C[C@@H]1NC(c2cccc3ccccc23)=Nc2nc3ccccn3c2C1=O
The GI50 of the first is 29-fold higher: 40 µM for the first, 1.4 µM for the second.

`C[C@H]1C(=O)c2c(nc3ccccn23)N=C(c2ccc(Br)cc2)N1C` and `CC(C)[C@@H]1NC(c2ccc(Br)cc2)=Nc2nc3ccccn3c2C1=O` cannot be ordered by GI50: greater than 10 µM for the first, 50 µM for the second.

First: O=C1CNC(c2ccc(Br)cc2)=Nc2nc3ccccn3c21
Second: CC[C@@H]1NC(c2ccc(Br)cc2)=Nc2nc3ccccn3c2C1=O
The GI50 of the first is higher: greater than 10 µM for the first, 1 µM for the second.

`C[C@@H]1NC(c2ccc(C(F)(F)F)cc2)=Nc2nc3ccccn3c2C1=O` and `C[C@@H]1NC(c2ccc(Cl)c(C(F)(F)F)c2)=Nc2nc3ccccn3c2C1=O` cannot be ordered by GI50: greater than 10 µM for the first, greater than 10 µM for the second.

Compared with `NCCCC[C@@H]1NC(c2ccc(Br)cc2)=Nc2nc3ccccn3c2C1=O`, `O=C1c2c(nc3ccccn23)N=C(c2ccc(Br)cc2)N[C@H]1CO` is lower in GI50: greater than 10 µM for the first, 0.95 to 1 µM for the second.

`O=C(NCCCC[C@@H]1NC(c2ccc(Br)cc2)=Nc2nc3ccccn3c2C1=O)OCc1ccccc1` and `CCOC(=O)c1ccc(C2=Nc3nc4ccccn4c3C(=O)[C@H](C)N2)cc1` cannot be ordered by GI50: greater than 10 µM for the first, greater than 10 µM for the second.

`CC(=O)Nc1ccc(C2=Nc3nc4ccccn4c3C(=O)[C@H](C)N2)cc1` and `CNC(=O)c1ccc(C2=Nc3nc4ccccn4c3C(=O)[C@H](C)N2)cc1` cannot be ordered by GI50: 10 to 100 µM for the first, greater than 10 µM for the second.

`C[C@@H]1NC(c2ccc(Br)cc2)=Nc2nc3ccccn3c2[C@H]1O` and `C[C@@H]1NC(c2cccc(Br)c2)=Nc2nc3ccccn3c2C1=O` cannot be ordered by GI50: greater than 10 µM for the first, greater than 10 µM for the second.

`C[C@@H]1NC(c2ccccc2Cl)=Nc2nc3ccccn3c2C1=O` showed a GI50 of 6.5 µM.

Target: Mitogen-activated protein kinase kinase kinase kinase 4 (Homo sapiens, UniProt O95819)
Assay: Inhibition of recombinant human HGK using Ulight-FLGFTYVAP as substrate after 90 mins by LANCE assay
Conditions: not given

Sequence of Mitogen-activated protein kinase kinase kinase kinase 4 (O95819 whole entry): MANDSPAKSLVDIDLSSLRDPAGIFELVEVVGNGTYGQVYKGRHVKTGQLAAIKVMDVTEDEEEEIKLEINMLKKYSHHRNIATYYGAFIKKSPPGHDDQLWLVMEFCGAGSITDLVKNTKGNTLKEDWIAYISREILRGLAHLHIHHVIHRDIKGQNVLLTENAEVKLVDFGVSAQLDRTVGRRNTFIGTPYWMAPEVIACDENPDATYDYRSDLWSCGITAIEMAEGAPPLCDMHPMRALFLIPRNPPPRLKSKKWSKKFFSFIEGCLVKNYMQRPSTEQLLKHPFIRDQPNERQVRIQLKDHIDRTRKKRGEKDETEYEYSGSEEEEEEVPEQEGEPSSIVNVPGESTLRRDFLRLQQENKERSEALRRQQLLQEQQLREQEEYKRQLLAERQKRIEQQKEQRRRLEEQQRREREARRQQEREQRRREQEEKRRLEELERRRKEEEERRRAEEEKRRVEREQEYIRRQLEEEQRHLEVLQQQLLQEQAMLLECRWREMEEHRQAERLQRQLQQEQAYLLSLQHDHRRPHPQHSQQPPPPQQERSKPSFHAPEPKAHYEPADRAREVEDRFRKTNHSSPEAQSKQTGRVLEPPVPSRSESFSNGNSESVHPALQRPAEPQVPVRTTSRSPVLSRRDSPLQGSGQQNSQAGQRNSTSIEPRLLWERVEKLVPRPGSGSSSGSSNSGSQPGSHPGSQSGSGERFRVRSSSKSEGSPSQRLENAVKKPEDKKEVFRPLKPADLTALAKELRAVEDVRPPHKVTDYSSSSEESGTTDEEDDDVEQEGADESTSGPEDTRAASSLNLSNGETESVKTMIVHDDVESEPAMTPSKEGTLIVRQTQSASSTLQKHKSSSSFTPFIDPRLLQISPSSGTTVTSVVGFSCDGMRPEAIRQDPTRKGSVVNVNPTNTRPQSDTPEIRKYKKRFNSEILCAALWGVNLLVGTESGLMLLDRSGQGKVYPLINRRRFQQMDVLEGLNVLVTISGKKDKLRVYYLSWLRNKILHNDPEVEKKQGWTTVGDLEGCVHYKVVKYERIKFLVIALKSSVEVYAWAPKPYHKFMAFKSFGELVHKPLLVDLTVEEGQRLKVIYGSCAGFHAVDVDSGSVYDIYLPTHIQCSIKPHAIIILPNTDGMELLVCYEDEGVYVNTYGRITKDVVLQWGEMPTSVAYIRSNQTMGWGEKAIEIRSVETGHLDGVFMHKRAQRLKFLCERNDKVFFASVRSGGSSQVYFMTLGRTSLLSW

Going from `C[C@H]1NC(c2ccc(Br)cc2)=Nc2nc3ccccn3c2C1=O` to `CC(C)[C@@H]1NC(c2ccc(Br)cc2)=Nc2nc3ccccn3c2C1=O`, the IC50 falls from greater than 100 µM to 44 µM. The second is the more potent here.

`C[C@@H]1NC(c2ccc(-c3ccccc3)cc2)=Nc2nc3ccccn3c2C1=O` and `CC(=O)Nc1ccc(C2=Nc3nc4ccccn4c3C(=O)[C@H](C)N2)cc1` cannot be ordered by IC50: greater than 100 µM for the first, greater than 100 µM for the second.
